Here are results for one compound from patent US20060194800A1, “Pteridine derivatives as nitric oxide synthase activators” (University of Strathclyde, priority 2005, published 2006).

Entries after “also recorded” stand apart in the source; their conditions may differ.

For one test, the system named is rat aorta. Briefly: BH4 depleted (DAHP) rat aorta relaxation. The settings on record: DAHP 10^-2 M for 6 h, tetrahydrobiopterin depleted. The method, then:
Rat pulmonary artery or aorta rings (as above) were placed in 15 ml tubes containing 2-3 ml of MEM (minimal essential medium) solution containing 0.1% bovine serum albumin, 100 U/ml penicillin and […] streptomycin. Some of the tubes in addition received diamino-hydroxy-pyrimidine (DAHP) 10^−2 M, an inhibitor of GTP cyclohydrolase, the rate-limiting step in tetrahydrobiopterin synthesis. The tubes were incubated at 37° C. for six hours. […] After the incubation with DAHP or the control incubation with the medium (MEM) alone, the rings were removed and then their relaxation in response to the analogue (or solvent NH4OH) was tested as above. Dose response curves of DAHP-treated tissues were compared to the control tissues treated in MEM alone for 6 hrs. The results are shown graphically in FIGS. 3 and 4. The above procedures were used to mimic cardiovascular disease, by treating aorta and pulmonary artery rings with an inhibitor of the enzyme GTP cyclohydrolase, which is the rate-limiting step in the formation of tetrahydrobiopterin by cells. Treatment with this inhibitor, DAHP, for 6 hours reduced endogenous tetrahydrobiopterin levels in arteries to 4% of the normal content. […] This was found in both pulmonary artery and aorta (FIGS. 3 and 4). […] The only effect seen was a contraction—the opposite to the action of WSG1002—at the highest concentration of tetrahydrobiopterin. […]

The target in the next test is T1, eNOS (Sus scrofa, UniProt Q28969).
T1 construct: endothelial cells that produce eNOS; endogenous in cells; host or cells: primary porcine pulmonary artery endothelial cells
T1 sequence (Q28969 2-1205 limits assumed): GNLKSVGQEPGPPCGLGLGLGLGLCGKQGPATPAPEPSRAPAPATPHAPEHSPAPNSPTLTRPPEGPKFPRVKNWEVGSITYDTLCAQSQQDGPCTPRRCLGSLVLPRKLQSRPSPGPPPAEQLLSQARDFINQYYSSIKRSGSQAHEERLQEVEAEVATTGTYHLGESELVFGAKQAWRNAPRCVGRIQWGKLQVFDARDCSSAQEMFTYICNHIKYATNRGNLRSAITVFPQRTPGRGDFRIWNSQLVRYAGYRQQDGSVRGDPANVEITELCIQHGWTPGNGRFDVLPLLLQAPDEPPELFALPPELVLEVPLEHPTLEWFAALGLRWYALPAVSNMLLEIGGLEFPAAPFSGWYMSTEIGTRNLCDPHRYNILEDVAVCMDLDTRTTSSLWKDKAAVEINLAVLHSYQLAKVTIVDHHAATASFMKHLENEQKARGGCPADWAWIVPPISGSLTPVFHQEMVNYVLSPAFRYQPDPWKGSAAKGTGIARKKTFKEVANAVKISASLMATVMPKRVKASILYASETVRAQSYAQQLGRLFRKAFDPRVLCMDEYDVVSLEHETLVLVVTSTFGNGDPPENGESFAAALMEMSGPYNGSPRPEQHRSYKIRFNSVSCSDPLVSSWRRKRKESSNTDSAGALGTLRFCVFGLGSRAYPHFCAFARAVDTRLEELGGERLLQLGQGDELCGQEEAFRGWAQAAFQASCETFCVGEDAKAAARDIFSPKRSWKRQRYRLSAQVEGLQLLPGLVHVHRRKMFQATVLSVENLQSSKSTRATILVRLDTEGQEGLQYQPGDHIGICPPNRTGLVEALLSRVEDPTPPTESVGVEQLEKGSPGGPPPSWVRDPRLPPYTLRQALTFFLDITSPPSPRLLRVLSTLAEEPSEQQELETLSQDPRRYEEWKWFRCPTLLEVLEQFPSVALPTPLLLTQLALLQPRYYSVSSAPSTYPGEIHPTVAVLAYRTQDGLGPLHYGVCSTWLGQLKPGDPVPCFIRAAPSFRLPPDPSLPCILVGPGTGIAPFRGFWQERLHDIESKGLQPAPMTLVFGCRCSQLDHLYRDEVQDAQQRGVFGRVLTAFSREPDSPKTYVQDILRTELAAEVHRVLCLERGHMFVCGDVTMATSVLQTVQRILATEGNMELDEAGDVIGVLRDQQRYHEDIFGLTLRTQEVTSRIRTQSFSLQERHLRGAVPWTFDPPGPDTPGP
Briefly: Endothelial cell assay, nitric oxide (NO2+NO3) production. In kind it is cell-based, porcine. The settings on record: 30 μM in DMSO, seven days, DAHP-depleted endothelial cells. On the procedure:
The arterial assay is sensitive but slow to perform, and therefore a wider range of compounds was investigated in whole cell preparations. Tests have been carried out using endothelial cells that produce eNOS and stimulated macrophages that produce iNOS. Endothelial cells were isolated from porcine pulmonary artery and grown to confluency in T75 flasks. Subsequently, the cells were seeded into 6-well plates. At confluency, the medium (1 ml/well) was changed and the relevant treatment introduced to all wells in each plate (one treatment/plate). The cells were incubated for a further 7-day period and the experiment was terminated. The media from the wells of respective plates was combined (˜6 mls) and evaporated to approximately 500 μl (˜10-fold). A 50 μl aliquot was removed and any NO3 was converted to NO2 using the NO3 conversion method (Calbiochem Cat No 482702). These treated samples were then assayed using the Greiss reaction as described above giving the content of the combination of (NO2+NO3). WSG1002, as a representative compound, was incubated with a preparation of endothelial cells over seven days in order to accumulate sufficient nitric oxide for assay as described above. Controls included vehicle (0.5% DMSO) and L-NAME (an established NOS inhibitor). WSG1002 caused a doubling of nitric oxide compared with vehicle control.

Regarding `CC(=O)C1=Nc2c(nc(N)[nH]c2=O)NC1(C)C` [wsg1002, 6-Acetyl-2-amino-7,7-dimethyl-7,8-dihydro-3H-pteridin-4-one], the “relaxation of rat aorta rings” value in the test with rat aorta is “significant and physiologically important vasodilatation; also recorded: significant relaxation”. Further, on eNOS, the “nitric oxide production compared with vehicle control” value was “doubling”.
